In patent publication US10154988B2, “Methods and compositions for treating schizophrenia” (The Johns Hopkins University, priority 2012, dated 2018):

What was measured:
[1] = tested on: Memory-impaired aged rats; test: Radial Arm Maze task, 2-hr delay, acute brivaracetam or seletracetam; assay type: in vivo, rat; conditions: 0.0625-4 mg/kg i.p. 30-40 min before test; repeated measures ANOVA (brivaracetam p=0.039, seletracetam p=0.009)
Method: (§1) The radial arm maze experiments uses acute administration of seletracetam (0-4 mg/kg), brivaracetam (0-4 mg/kg), or saline vehicle given by intraperitoneal injection (in a volume of 1 ml/kg) 30-40 min prior to test sessions. In the chronic treatment experiment, memory-impaired aged rats are implanted subcutaneously in the intrascapular region with osmotic mini-pumps (ALZET, Durect Corporation, Cupertino, Calif.) with brivaracetam (2 mg/kg/day) or saline vehicle starting two weeks prior to assessment in the water maze.
A radial arm maze (RAM) task is used to assess effects of acute drug treatment with seletracetam and brivaracetam. This protocol allows within-subject assessment across drugs at different doses. The radial maze consists of eight arms projecting from each side of an octagonal center platform, with a food well located at the distal end of each arm. Plexiglas blocks can be positioned to prevent entry into any arm. Extra-maze cues are provided in the room surrounding the maze and illumination is provided by an overhead light.
Pre-training, as described in detail in Chappell et al. Neuropharmacology 37: 481-487, (1998), consists of habituation, standard win-shift training, and win-shift training with delays interposed between information and memory test phases. […]

[2] = tested on: Memory-impaired aged rats; test: water maze probe test after chronic brivaracetam (osmotic mini-pumps); assay type: in vivo, rat; conditions: 2 mg/kg/day
Method: as §1
Rats are trained and tested in a novel water maze environment to assess the effect of drug treatment. The water maze used here is housed in a different building and is surrounded by curtains with a novel set of patterns relative to the maze used for initial assessment of cognitive status. The training protocol consists of 6 trials per day for 2 days to locate a submerged escape platform. On each trial, a rat is released in the maze from one of four equally spaced starting positions around the perimeter of the pool. The starting position varies from trial to trial. […] The rat is then removed from the platform and placed in a holding cage for another 40 s before the next trial. Approximately 24 hrs after the last training trial, a probe test in the absence of the escape platform is given to assess spatial memory.

[3] = tested on: MAM-treated rats; conditions: rat, in vivo; cited from earlier work
[4] = tested on: MAM-treated rats; conditions: cited from earlier work
[5] = tested on: aged-impaired (AI) rats; test: eight-arm Radial Arm Maze task, one-hour delay (levetiracetam, valproate, combination); assay type: in vivo, rat; conditions: valproate on its own
Method: The effects of levetiracetam on the spatial memory retention of aged-impaired (AI) rats are assessed in a Radial Arm Maze (RAM) behavioral task using vehicle control and five different dosage levels of levetiracetam (1.25 mg/kg/day, 2.5 mg/kg/day, 5 mg/kg/day, 10 mg/kg/day and 20 mg/kg/day). RAM behavioral tasks are preformed on ten AI rats. All six treatment conditions are tested on all ten rats, as described above for the MWM test. The RAM apparatus used consists of eight equidistantly-spaced arms. An elevated maze arm (7 cm width×75 cm length) projects from each facet of an octagonal center platform (30 cm diameter, 51.5 cm height). Clear side walls on the arms are 10 cm high and are angled at 65° to form a trough. A food well (4 cm diameter, 2 cm deep) is located at the distal end of each arm. Froot Loops™ (Kellogg Company) are used as rewards. Blocks constructed of Plexiglas™ (30 cm height×12 cm width) can be positioned to prevent entry to any arm. Numerous extra maze cues surrounding the apparatus are also provided. The AI rats are initially subjected to a pre-training test (Chappell et al. Neuropharmacology 37: 481-487, 1998). The pre-training test consists of a habituation phase (4 days), a training phase on the standard win-shift task (18 days) and another training phase (14 days) in which a brief delay is imposed between presentation of a subset of arms designated by the experimenter (e.g., 5 arms available and 3 arms blocked) and completion of the eight-arm win-shift task (i.e., with all eight arms available). In the habituation phase, rats are familiarized to the maze for an 8-minute session on four consecutive days. In each of these sessions food rewards are scattered on the RAM, initially on the center platform and arms and then progressively confined to the arms. After this habituation phase, a standard training protocol is used, in which a food pellet is located at the end of each arm. Rats receive one trial each day for 18 days. Each daily trial terminates when all eight food pellets have been obtained or when either 16 choices are made or 15 minutes had elapsed. After completion of this training phase, a second training phase is carried out in which the memory demand is increased by imposing a brief delay during the trial. At the beginning of each trial, three arms of the eight-arm maze are blocked. Rats are allowed to obtain food on the five arms to which access is permitted during this initial ‘information phase’ of the trial. Rats are then removed from the maze for 60 seconds, during which time the barriers on the maze are removed, thus allowing access to all eight arms. Rats are then placed back onto the center platform and allowed to obtain the remaining food rewards during this ‘retention test’ phase of the trial. The identity and configuration of the blocked arms varies across trials. The number of “errors” the AI rats make during the retention test phase is tracked. An error occurs in the trial if the rats enter an arm from which food had already been retrieved in the pre-delay component of the trial, or if it re-visits an arm in the post-delay session that has already been visited. After completion of the pre-training test, rats are subjected to trials with more extended delay intervals, i.e., a one-hour delay, between the information phase (presentation with some blocked arms) and the retention test (presentation of all arms). During the delay interval, rats remain off to the side of the maze in the testing room, on carts in their individual home cages. AI rats are pretreated 30-40 minutes before daily trials with a one-time shot of the following six conditions: 1) vehicle control (0.9% saline solution); 2) levetiracetam (1.25 mg/kg/day); 3) levetiracetam (2.5 mg/kg/day); 4) levetiracetam (5 mg/kg/day); 5) levetiracetam (10 mg/kg/day); 6) levetiracetam (20 mg/kg/day); […] Injections are given every other day with intervening washout days. Each AI rat is treated with all six conditions within 23 days of testing. […]

## CCC[C@@H]1CC(=O)N([C@@H](CC)C(N)=O)C1 [brivaracetam]
[1]
  number of errors in the retention phase after the 2-hr delay, effect of dose: significant effect as a function of dose
[2]; 14 days, n=3/group, t(2)=10.000, p=0.010
  spatial bias for the target quadrant compared to the other quadrants: significant spatial bias
[2]; t(4)=3.109, p=0.036
  time in the target annulus versus vehicle-treated rats: significantly more time in the target annulus
[2]; t(4)=3.881, p=0.018
  time in the target quadrant versus vehicle-treated rats: significantly more time in the target quadrant

## NC1=N[C@H](O)[C@H]2[C@H]3O[C@]4(O)O[C@@H]([C@@H](O)[C@@]2(N1)[C@@H]4O)[C@]3(O)CO [tetrodotoxin]
[3]
  augmented amphetamine-induced locomotor behavior: normalized
  elevated DA neuron population activity: completely reversed

## CC[C@@H](C(N)=O)N1C[C@H](C=C(F)F)CC1=O [seletracetam]
[1]
  number of errors in the retention phase after the 2-hr delay, effect of dose: significant effect as a function of dose

## C#Cc1ccc2c(c1)C(c1ccccc1F)=N[C@H](C)c1c(C(=O)OCC)ncn1-2 [SH-053-2′F—R—CH3]
[4]; rat, in vivo
  increased locomotor response to amphetamine in MAM-treated rats: reduced
[4]; saline-treated and MAM-treated animals
  cortical-evoked responses of HPC neurons: diminished cortical-evoked responses
[4]; systemic or infused into the ventral HPC, to levels of saline-treated rats
  number of spontaneously active DA neurons in the VTA of MAM rats: reduces the number of spontaneously active DA neurons

## CCCC(CCC)C(=O)O [valproate]
[5]; 25 mg/kg subcutaneous
  reducing the number of errors in the radial arm maze: not at 25 mg/kg or 50 mg/kg
[5]; 50 mg/kg subcutaneous
  reducing the number of errors in the radial arm maze: not at 25 mg/kg or 50 mg/kg
[5]; 100 mg/kg subcutaneous
  reducing the number of errors in the radial arm maze: effective at 100 mg/kg
